From ChEMBL document CHEMBL4842345, “Design, synthesis and biological evaluation of tanshinone IIA-based analogues: Potent inhibitors of microtubule formation and angiogenesis” (Eur J Med Chem, 2021)
Active and inactive are the calls of the source. The rule behind the calls is not given here.

Key:
HeLa = experiment: Antiproliferative activity against human HeLa cells assessed as reduction in cell viability measured after 72 hrs by MTT assay; type: functional, cell-based
U-937 = experiment: Antiproliferative activity against human U-937 cells assessed as reduction in cell viability measured after 72 hrs by MTT assay; type: functional, cell-based; conditions: U-937, 72 h
Tubulin (Homo sapiens) [1] = biological target: T1, Tubulin (Homo sapiens) (UniProt P68371+Q9H4B7+P0DPH7+P68366+Q13509+Q71U36+P04350+Q3ZCM7+P07437+P68363+Q9BQE3+Q6PEY2+Q13885+Q9BVA1+Q9BUF5); experiment: Induction of microtubule distruption in human A549 cells assessed as disseminated microtubules in cytoplasm at 2.5 to 10 uM measured after 48 hrs by immunofluorescence based laser scanning confocal microscopic analysis; type: cell-based; conditions: dose 2.5-10 µM
Tubulin (Homo sapiens) [2] = biological target: T1, Tubulin (Homo sapiens); experiment: Induction of microtubule distruption in human A549 cells assessed as occurence of cell shrinkage at 2.5 to 10 uM measured after 48 hrs by immunofluorescence based laser scanning confocal microscopic analysis; conditions: dose 2.5-10 µM
A549 [3] = experiment: Induction of apoptosis in human A549 cells assessed as dead cells at 2.5 uM measured after 48 hrs by Annexin V-FITC/PI staining based flow cytometry analysis (Rvb= 0.67%); type: functional
A549 [4] = experiment: Induction of apoptosis in human A549 cells assessed as early apoptotic cells at 5 uM measured after 48 hrs by Annexin V-FITC/PI staining based flow cytometry analysis (Rvb= 0.72%); type: functional
A549 [5] = experiment: Induction of cell cycle arrest in human A549 cells assessed as increase in number of cells accumulation at G2/M phase at 2.5 uM measured after 48 hrs by flow cytometry analysis (Rvb= 16.72%); type: functional
A549 [6] = experiment: Induction of cell cycle arrest in human A549 cells assessed as increase in number of cells accumulation at G2/M phase at 5 uM measured after 48 hrs by flow cytometry analysis (Rvb= 16.72%); type: functional
A549 [7] = experiment: Induction of cell cycle arrest in human A549 cells assessed as accumulation of cells at G1 phase at 5 uM measured after 48 hrs by flow cytometry analysis (Rvb= 60.29%); type: functional
A549 [8] = experiment: Induction of cell cycle arrest in human A549 cells assessed as accumulation of cells at S phase at 2.5 uM measured after 48 hrs by flow cytometry analysis (Rvb= 24.5%); type: functional
A549 [9] = experiment: Induction of cell cycle arrest in human A549 cells assessed as accumulation of cells at S phase at 5 uM measured after 48 hrs by flow cytometry analysis (Rvb= 24.5%); type: functional
A549 [10] = experiment: Induction of cell cycle arrest in human A549 cells assessed as accumulation of cells at S phase at 10 uM measured after 48 hrs by flow cytometry analysis (Rvb= 24.5%); type: functional
HUVEC = experiment: Antiinvasive activity in HUVEC cells assessed as decrease in cell invasion at 0.25 to 1 uM measured after 48 hrs by crystal violet staining based transwell assay; type: functional; conditions: Homo sapiens, dose 0.25-1 µM
A549 [11] = experiment: Inhibition of cell migration in human A549 cells assessed as decrease in wound healing rate at 0.5 to 2 uM measured after 48 hrs by wound healing assay; type: functional, cell-based; conditions: dose 0.5-2 µM
A549 [12] = experiment: Antiinvasive activity in human A549 cells assessed as decrease in number of migrated A549 cells at 0.5 to 2 uM measured after 48 hrs by crystal violet staining based transwell assay; type: functional, cell-based; conditions: dose 0.5-2 µM
[13] = Metabolic stability in human liver microsomes assessed as degradation half life; type: ADME, Microsome; conditions: microsomes

SMILES: COc1ccc2c(c1)-c1occ(C)c1C(=O)C2=O
- IC50 (HeLa): 0.28 µM
- IC50 (U-937): 2.77 µM
- Activity (Tubulin (Homo sapiens) [1]): Active
- Activity (Tubulin (Homo sapiens) [2]): Active
- Activity (A549 [3]): 0.68%
- Activity (A549 [4]): 10.3%
- Activity (A549 [5]): 17.41%
- Activity (A549 [6]): 20%
- Activity (A549 [7]): 54.43%
- Activity (A549 [8]): 21.27%
- Activity (A549 [9]): 25.26%
- Activity (A549 [10]): 13.48%
- Activity (HUVEC): Active
- inhibition (A549 [11]): Active
- Activity (A549 [12]): Active
- t1/2 [13]: 1.8 h
